{
  "source": "paper PMC6723059",
  "about": "“A Collection of Bioactive Nitrogen-Containing Molecules from the Marine Sponge Acanthostrongylophora ingens” (Marine Drugs, 2019)",
  "biological_target": "T1, cyclin-dependent kinase 2 (CDK2/cyclin A) (Homo sapiens, UniProt P24941)",
  "T1 construct": "with cyclin A",
  "assay": "in vitro protein kinase activity assay, […] ATP",
  "type": "biochemical",
  "data": [
    {"smiles": "O=C1N[C@@H](Cc2ccccc2)C(=O)N2CCC[C@H]12", "note": "[compound 6, cyclo(D-Pro-L-Phe)]", "values": [
      {"measurement": "IC50", "value": 1000, "unit": "nM"}
    ]}
  ]
}
